Patent US20240390383A1, “DIOXAZINES AND THEIR USE IN TREATMENT OF GBA-RELATED DISEASES” (ZEVRA DENMARK A/S, priority 2021, published 2024)
“And” between values parts separate entries of the source, which are not always exact repeats. Equal entries are not always repeated.

Target: T1, GCase (GBA) in human fibroblast cell line GM10915 harboring the L444P GBA mutation (Homo sapiens, UniProt P04062, L483P)
T1 construct: Human fibroblast cell line GM10915 harboring the L444P GBA mutation; host or cells: GM10915 human fibroblasts
T1 sequence (P04062 40-536 L483P): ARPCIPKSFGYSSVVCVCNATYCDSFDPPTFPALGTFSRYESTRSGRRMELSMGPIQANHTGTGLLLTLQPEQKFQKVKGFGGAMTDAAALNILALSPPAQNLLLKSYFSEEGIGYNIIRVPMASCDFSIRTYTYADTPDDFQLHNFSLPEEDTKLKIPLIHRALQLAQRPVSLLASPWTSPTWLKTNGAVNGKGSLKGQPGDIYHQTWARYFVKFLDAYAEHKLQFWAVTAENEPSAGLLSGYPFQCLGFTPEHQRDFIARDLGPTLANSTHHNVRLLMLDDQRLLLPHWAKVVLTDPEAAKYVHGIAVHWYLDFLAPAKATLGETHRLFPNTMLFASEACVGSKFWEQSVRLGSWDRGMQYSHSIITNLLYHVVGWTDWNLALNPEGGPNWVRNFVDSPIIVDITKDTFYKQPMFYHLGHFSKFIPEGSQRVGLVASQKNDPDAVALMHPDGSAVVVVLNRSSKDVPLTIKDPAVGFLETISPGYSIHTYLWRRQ
Assay: GCase activity assay (4-MUG substrate, normalised to crystal violet staining) in L444P GBA fibroblasts
Type: cell-based
Details: 5 days exposure; for GBA EC1.5: concentration giving 150% GCase activity (1.5-fold induction), 8-point dose range; for Emax / GBA Emax: maximum percent GCase activity relative to untreated cells in the dose range tested
Summary of the method: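 Patient fibroblasts GM10915 (L444P GBA) exposed to compounds for five days over an 8-point range, with fresh dosing every 2–3 days. Intact-cell GCase measured with 2.5 mM 4-MUG at pH 4.0 for 23 h at 37 °C (ex/em 365/445 nm), normalised to crystal violet, as % of PBS basal; Emax is the maximum reached.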

| Compound | GBA EC1.5 | Emax [%] | GBA Emax |
| --- | --- | --- | --- |
| CN(C)C(=O)[C@@]12CC[C@]1(C1=NOCC(CN3CCCCC3)O1)CNC2 (relative stereo) [compound 765, rac-rel-(1R,5S)—N,N-dimethyl-5-(5-(piperidin-1-ylmethyl)-5,6-dihydro-1,4,2-dioxazin-3-yl)-3-azabicyclo[3.2.0]heptane-1-carboxamide] | 29 µM | 151 | – |
| C1CCN(CC2CON=C(CC3CCCNC3)O2)CC1 (racemic) [compound 554, rac-5-(piperidin-1-ylmethyl)-3-(piperidin-3-ylmethyl)-5,6-dihydro-1,4,2-dioxazine] | 11 µM | 271 | – |
| CC1(C2=NOC[C@@H](CN3CCCCC3)O2)CCNCC1 [compound 892] | 13 µM | – | 274% |
| c1cncc(CC2(C3=NOCC(CN4CCCCC4)O3)CCNCC2)c1 (racemic) [compound 550, rac-5-(piperidin-1-ylmethyl)-3-(4-(pyridin-3-ylmethyl)piperidin-4-yl)-5,6-dihydro-1,4,2-dioxazine] | 27 µM | 159 | – |
| C1CCN(CC2CON=C(CC3CCNCC3)O2)CC1 (racemic) [compound 479, rac-5-(piperidin-1-ylmethyl)-3-(piperidin-4-ylmethyl)-5,6-dihydro-1,4,2-dioxazine] | 35 µM | 184 | – |
| COCC1(C2=NOCC(CN3CCCCC3)O2)CCNC1 (racemic) [compound 594, rac-3-(3-(methoxymethyl)pyrrolidin-3-yl)-5-(piperidin-1-ylmethyl)-5,6-dihydro-1,4,2-dioxazine] | 49 µM | 152 | – |
| CN1C(=O)CC(C2=NOCC(CN3CCCCC3)O2)c2ccccc21 (stereo not shown) [compound 664] | 50 µM | 137 | – |
| C1CCN(CC2CON=C(C34CCCN(CC3)C4)O2)CC1 (racemic) [compound 553, rac-3-(1-azabicyclo[3.2.1]octan-5-yl)-5-(piperidin-1-ylmethyl)-5,6-dihydro-1,4,2-dioxazine] | 4 µM | 341 | – |
| F[C@H]1CN[C@H](C2=NOCC(CN3CCCCC3)O2)C1 (stereo partly shown) [compound 556] | 50 µM | 114 | – |
| c1cncc(CC2(C3=NOCC(CN4CCCCC4)O3)CCOCC2)c1 (stereo not shown) [compound 552] | 50 µM | 115 | – |
| CC(=O)N1CCC(C2=NOCC(CN3CCCCC3)O2)C1 (stereo not shown) [compound 674] | 50 µM | 123 | – |
| CC(=O)N1CCC(C2=NOCC(CN3CCCCC3)O2)CC1 (stereo not shown) [compound 683] | 50 µM | 113 | – |
| CN(C)C(=O)N1CCCC(C2=NOCC(CN3CCCCC3)O2)C1 (stereo not shown) [compound 670] | 50 µM | 126 | – |
| Fc1cncc(CC2(C3=NOCC(CN4CCCCC4)O3)CCNCC2)c1 (racemic) [compound 528, rac-3-(4-((5-fluoropyridin-3-yl)methyl)piperidin-4-yl)-5-(piperidin-1-ylmethyl)-5,6-dihydro-1,4,2-dioxazine] | 6 µM | 181 | – |
| c1cncc(CC2(C3=NOCC(CN4CCCCC4)O3)CCNC2)c1 (racemic) [compound 643, rac-5-(piperidin-1-ylmethyl)-3-(3-(pyridin-3-ylmethyl)pyrrolidin-3-yl)-5,6-dihydro-1,4,2-dioxazine] | 18 µM | 178 | – |
| C[C@@H]1CNC[C@@]1(C)C1=NOCC(CN2CCCCC2)O1 (relative stereo) [compound 489, rac-rel-cis-3-((3R,4R)-3,4-dimethylpyrrolidin-3-yl)-5-(piperidin-1-ylmethyl)-5,6-dihydro-1,4,2-dioxazine] | 29 µM | 242 | – |
| COc1cncc(CNCCC2=NOCC(CN3CCCCC3)O2)c1 (racemic) [compound 806, rac-N-((5-methoxypyridin-3-yl)methyl)-2-(5-(piperidin-1-ylmethyl)-5,6-dihydro-1,4,2-dioxazin-3-yl)ethan-1-amine] | 40 µM | 183 | – |
| CN(C)[C@H]1CNC[C@H]1C1=NOCC(CN2CCCCC2)O1 (mixture of isomers) [compound 766, rac-rel-cis-(3R,4R)—N,N-dimethyl-4-(5-(piperidin-1-ylmethyl)-5,6-dihydro-1,4,2-dioxazin-3-yl)pyrrolidin-3-amine] | 38 µM | 136 | – |
| CC1(C2=NOCC(CN3CCCCC3)O2)CCNCC1 (racemic) [compound 568, rac-3-(4-methylpiperidin-4-yl)-5-(piperidin-1-ylmethyl)-5,6-dihydro-1,4,2-dioxazine] | 6 µM | 281 | – |
| N[C@@H]1CN[C@@H](C2=NOCC(CN3CCCCC3)O2)C1 (stereo partly shown) [compound 557] | 50 µM | 115 | – |
| CC1(C2=NOCC(CN3CCC(F)(F)CC3)O2)CCNCC1 (racemic) [compound 673, rac-5-((4,4-difluoropiperidin-1-yl)methyl)-3-(4-methylpiperidin-4-yl)-5,6-dihydro-1,4,2-dioxazine] | 49 µM | 151 | – |

| Compound | GBA EC1.5 | Emax [%] | GBA Emax |
| --- | --- | --- | --- |
| c1ccc(N2CCC(C3=NOCC(CN4CCCCC4)O3)CC2)nc1 (stereo not shown) [compound 678] | 50 µM | 106 | – |
| CC(C)(C1=NOCC(CN2CCCCC2)O1)C1CCNCC1 (racemic) [compound 477, rac-5-(piperidin-1-ylmethyl)-3-(2-(piperidin-4-yl)propan-2-yl)-5,6-dihydro-1,4,2-dioxazine di-2,2,2-trifluoroacetate] | 15 µM | 181 | – |
| NCC(=O)N1CCCC(C2=NOCC(CN3CCCCC3)O2)C1 (racemic) [compound 725, rac-2-amino-1-(3-(5-(piperidin-1-ylmethyl)-5,6-dihydro-1,4,2-dioxazin-3-yl)piperidin-1-yl)ethan-1-one] | 36 µM | 168 | – |
| COc1ncc(CC2(C3=NOCC(CN4CCCCC4)O3)CCNCC2)cc1Cl (stereo not shown) [compound 545] | 1 µM | 140 | – |
| CC1(C2=NOC[C@@H](CN3CCCCC3)O2)CCNCC1 [compound 886] | 7 µM | – | 203% |
| C1CCN(CC2CON=C([C@]34CCC[C@H]3NCC4)O2)CC1 (stereo partly shown) [compound 558] | 4 µM | 225 | – |
| O=c1[nH]nc2n1CCC(C1=NOCC(CN3CCCCC3)O1)C2 (stereo not shown) [compound 668] | 50 µM | 116 | – |
| CC(C)C1ON=C(C2CCNC2)OC1CN(C)C (racemic) [compound 713, rac-1-(6-isopropyl-3-(pyrrolidin-3-yl)-5,6-dihydro-1,4,2-dioxazin-5-yl)-N,N-dimethylmethanamine] | 28 µM | 212 | – |
| CC(C)C1ON=C(C2CCNCC2)OC1CN1CCCCC1 (racemic) [compound 706, rac-6-isopropyl-5-(piperidin-1-ylmethyl)-3-(piperidin-4-yl)-5,6-dihydro-1,4,2-dioxazine] | 6 µM | 180 | – |
| CN1CC[C@@H]2CN(CC3CON=C(C4(C)CCNCC4)O3)C[C@@H]21 (stereo partly shown) [compound 555] | 50 µM | 114 | – |
| c1ccc(N2CCCC(C3=NOCC(CN4CCCCC4)O3)C2)nc1 (stereo not shown) [compound 661] | 50 µM | 140 | – |
| C[C@]1(C2=NOC[C@H](CN3CCCCC3)O2)CCCNC1 [compound 881] | 5 µM | 219 | – |
| c1sc(C2CCCNC2)nc1C1=NOCC(CN2CCCCC2)O1 (stereo not shown) [compound 876] | 4 µM | 180 | – |
| CN1CC2(C)CN(CC3CON=C(C4(C)CCNCC4)O3)CC2(C)C1 (stereo not shown) [compound 628] | 43 µM | 136 | – |
| C1CCN(C[C@@H]2CON=C([C@]34CCC[C@H]3NCC4)O2)CC1 (single isomer, unassigned) [compound 590] | 4 µM and 3 µM | – | 211% and 273% |
| CN1CCC(C2=NOCC(CN3CCCCC3)O2)CC1=O (stereo not shown) [compound 676] | 50 µM | 120 | – |
| CC1NCCC1C1=NOCC(CN2CCCCC2)O1 (racemic) [compound 559, rac-3-(2-methylpyrrolidin-3-yl)-5-(piperidin-1-ylmethyl)-5,6-dihydro-1,4,2-dioxazine] | 16 µM | 251 | – |
| COC1CNC(C)(C2=NOCC(CN3CCCCC3)O2)C1 (racemic) [compound 565, rac-3-(4-methoxy-2-methylpyrrolidin-2-yl)-5-(piperidin-1-ylmethyl)-5,6-dihydro-1,4,2-dioxazine] | 37 µM | 168 | – |
| CC1ON=C(C2CCNC2)OC1CN1CCCCC1 (racemic) [compound 616, rac-6-methyl-5-(piperidin-1-ylmethyl)-3-(pyrrolidin-3-yl)-5,6-dihydro-1,4,2-dioxazine] | 6 µM | 390 | – |
| OC1(C2=NOCC(CN3CCCCC3)O2)CCNCC1 (stereo not shown) [compound 650] | 50 µM | 141 | – |
